Assay results as given in patent publication US20070004660A1, “Synergistic Modulation of Flt3 Kinase Using Alkylquinolines and Alkylquinazolines” (priority 2005, published 2007).

biological target: T1, wild-type FLT3 receptor (Homo sapiens, UniProt P36888); assay: Cell-based FLT3 receptor ELISA (FLT ligand-induced phosphorylation in Baf3 FLT3 cells); details: 100 ng/mL Flt ligand, uncertainty ±20%
T1 construct: host or cells: Baf3 (murine B cell lymphoma line), stably transfected
T1 sequence (P36888 27-993): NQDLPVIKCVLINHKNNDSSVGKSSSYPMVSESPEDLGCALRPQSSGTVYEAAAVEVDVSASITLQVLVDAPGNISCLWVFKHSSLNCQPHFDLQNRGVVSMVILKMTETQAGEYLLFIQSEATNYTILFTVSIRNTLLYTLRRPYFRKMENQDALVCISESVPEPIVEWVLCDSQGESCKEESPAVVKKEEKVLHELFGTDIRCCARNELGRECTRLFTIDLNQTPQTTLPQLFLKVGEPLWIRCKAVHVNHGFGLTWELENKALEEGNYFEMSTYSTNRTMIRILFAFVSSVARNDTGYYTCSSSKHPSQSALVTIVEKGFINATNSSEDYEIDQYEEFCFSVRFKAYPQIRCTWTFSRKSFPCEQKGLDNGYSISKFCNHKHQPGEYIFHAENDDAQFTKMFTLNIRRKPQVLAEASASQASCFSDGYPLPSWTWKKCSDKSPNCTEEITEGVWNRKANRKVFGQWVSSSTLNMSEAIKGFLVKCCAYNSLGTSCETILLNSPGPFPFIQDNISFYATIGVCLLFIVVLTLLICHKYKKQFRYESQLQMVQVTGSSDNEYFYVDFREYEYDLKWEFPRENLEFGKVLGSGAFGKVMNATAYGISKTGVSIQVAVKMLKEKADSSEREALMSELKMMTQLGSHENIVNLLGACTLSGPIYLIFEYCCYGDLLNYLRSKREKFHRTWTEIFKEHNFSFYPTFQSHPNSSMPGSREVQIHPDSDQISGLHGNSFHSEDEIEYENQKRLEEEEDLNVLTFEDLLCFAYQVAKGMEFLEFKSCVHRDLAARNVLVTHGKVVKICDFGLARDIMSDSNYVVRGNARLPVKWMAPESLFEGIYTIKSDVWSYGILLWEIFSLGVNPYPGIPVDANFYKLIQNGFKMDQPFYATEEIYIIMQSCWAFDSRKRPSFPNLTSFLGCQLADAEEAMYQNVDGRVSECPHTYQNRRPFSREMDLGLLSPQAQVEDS
In short: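 Receptor phosphotyrosine measured by sandwich ELISA (anti-FLT3 capture, HRP anti-pTyr, luminescence) in FLT3-transfected murine Baf3 cells given 1 h compound pretreatment and 10 min 100 ng/mL FLT ligand after overnight low-serum starvation; triplicates, IC50 from nonlinear regression.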

SMILES | IC50
O=C(Nc1ccc(N2CCCC2)cc1)N1CCC(c2ncnc3cc(OCCCN4CCC[C@H]4CO)ccc23)CC1 [Example 161, (S)-4-{7-[3-(2-Hydroxymethyl-pyrrolidin-1-yl)-propoxy]-quinazolin-4-yl}-piperidine-1-carboxylic acid (4-pyrrolidin-1-yl-phenyl)-amide] | 59 nM
CC(=O)N1CCC[C@H]1COc1ccc2c(C3CCN(C(=O)Nc4ccc(N5CCCC5)cc4)CC3)ncnc2c1 [Example 162, (S)-4-[7-(1-Acetyl-pyrrolidin-2-ylmethoxy)-quinazolin-4-yl]-piperidine-1-carboxylic acid (4-pyrrolidin-1-yl-phenyl)-amide] | 10 nM
CS(=O)(=O)N1CCN(CCCOc2ccc3c(C4CCN(C(=O)Nc5ccc(N6CCCC6)cc5)CC4)ncnc3c2)CC1 [Example 164, 4-{7-[3-(4-Methanesulfonyl-piperazin-1-yl)-propoxy]-quinazolin-4-yl}-piperidine-1-carboxylic acid (4-pyrrolidin-1-yl-phenyl)-amide] | 11 nM
CC(=O)N1CCN(c2ccc3c(C4CCN(C(=O)Nc5ccc(N6CCCC6)cc5)CC4)ncnc3c2)CC1 [Example 166, 4-[7-(4-Acetyl-piperazin-1-yl)-quinazolin-4-yl]-piperidine-1-carboxylic acid (4-pyrrolidin-1-yl-phenyl)-amide] | 16 nM
CS(=O)(=O)N1CCN(c2ccc3c(C4CCN(C(=O)Nc5ccc(N6CCCC6)cc5)CC4)ncnc3c2)CC1 [Example 167, 4-[7-(4-Methanesulfonyl-piperazin-1-yl)-quinazolin-4-yl]-piperidine-1-carboxylic acid (4-pyrrolidin-1-yl-phenyl)-amide] | 3 nM
O=C(Nc1ccc(N2CCCC2)cc1)N1CCC(c2ncnc3cc(OCCO)ccc23)CC1 [Example 169, 4-[7-(2-Hydroxy-ethoxy)-quinazolin-4-yl]-piperidine-1-carboxylic acid (4-pyrrolidin-1-yl-phenyl)-amide] | 2 nM
CC(=O)N1CC(Oc2ccc3c(C4CCN(C(=O)Nc5ccc(N6CCCC6)cc5)CC4)ncnc3c2)C1 [Example 170, 4-[7-(1-Acetyl-azetidin-3-yloxy)-quinazolin-4-yl]-piperidine-1-carboxylic acid (4-pyrrolidin-1-yl-phenyl)-amide] | 4 nM
O=C(COc1ccc2c(C3CCN(C(=O)Nc4ccc(N5CCCC5)cc4)CC3)ncnc2c1)N1CCOCC1 [Example 172, 4-[7-(2-Morpholin-4-yl-2-oxo-ethoxy)-quinazolin-4-yl]-piperidine-1-carboxylic acid (4-pyrrolidin-1-yl-phenyl)-amide] | 149 nM
O=C(Nc1ccc(N2CCCC2)cc1)N1CCC(c2ncnc3cc(N4CCC4)ccc23)CC1 [Example 173, 4-(7-Azetidin-1-yl-quinazolin-4-yl)-piperidine-1-carboxylic acid (4-pyrrolidin-1-yl-phenyl)-amide] | 2 nM
O=C(Nc1ccc(N2CCCC2)cc1)N1CCC(c2ncnc3cc(Oc4cccnc4)ccc23)CC1 [Example 174, 4-[7-(Pyridin-3-yloxy)-quinazolin-4-yl]-piperidine-1-carboxylic acid (4-pyrrolidin-1-yl-phenyl)-amide] | 130 nM

The next lines start with the values.

IC50 | SMILES
118 nM | CC(=O)N1CCC(COc2ccc3c(C4CCN(C(=O)Nc5ccc(N6CCCC6)cc5)CC4)ncnc3c2)CC1 [Example 163, 4-[7-(1-Acetyl-piperidin-4-ylmethoxy)-quinazolin-4-yl]-piperidine-1-carboxylic acid (4-pyrrolidin-1-yl-phenyl)-amide]
4 nM | CN(C)C(=O)N1CCN(CCCOc2ccc3c(C4CCN(C(=O)Nc5ccc(N6CCCC6)cc5)CC4)ncnc3c2)CC1 [Example 165, 4-(3-{4-[1-(4-Pyrrolidin-1-yl-phenylcarbamoyl)-piperidin-4-yl]-quinazolin-7-yloxy}-propyl)-piperazine-1-carboxylic acid dimethylamide]
10 nM | CS(=O)(=O)N1CC(Oc2ccc3c(C4CCN(C(=O)Nc5ccc(N6CCCC6)cc5)CC4)ncnc3c2)C1 [Example 171, 4-[7-(1-Methanesulfonyl-azetidin-3-yloxy)-quinazolin-4-yl]-piperidine-1-carboxylic acid (4-pyrrolidin-1-yl-phenyl)-amide]
6 nM | O=C(Nc1ccc(N2CCCC2)cc1)N1CCC(c2ncnc3cc(NCCO)ccc23)CC1 [Example 175, 4-[7-(2-Hydroxy-ethylamino)-quinazolin-4-yl]-piperidine-1-carboxylic acid (4-pyrrolidin-1-yl-phenyl)-amide]
7 nM | O=C(Nc1ccc(N2CCCC2)cc1)N1CCC(c2ncnc3cc(N4CCOC4=O)ccc23)CC1 [Example 176, 4-[7-(2-Oxo-oxazolidin-3-yl)-quinazolin-4-yl]-piperidine-1-carboxylic acid (4-pyrrolidin-1-yl-phenyl)-amide]
